Reference: patent publication US20250215012A1, “IKZF2 DEGRADERS AND USES THEREOF” (REGENTS OF THE UNIVERSITY OF MICHIGAN, priority 2022, published 2025)
Like-named read-outs stand apart in the source and are kept apart here.

Columns and labels:
IKZF1 = IKZF1 (Homo sapiens (Human), UniProt Q13422+Q96SW2); test: IKZF1 HiBit Assay (HEK293T Flp-in-HiBiT-IKZF1 stable cell line); format: cell-based; details: for DC50: read-out: IKZF1 HiBit degradation DC50; for Dmax: HEK-293T, read-out: IKZF1 HiBit degradation Dmax
Method: The HiBiT protein tagging system was applied to modified Cells: modified HEK293T Flp-in-HiBiT-IKZF1 stable cell line (polyclone) via a CRISPR/Cas9—mediated insertion of the HiBiT peptide tag (Promega™) to the N-terminus of the IKZF2 gene locus (Neon™ transfection system).
Test compound from 10 mM and reference compound (CC-92480 from 50 mM and I-57 from 10 mM) are diluted at 3 folds for 11 doses. 25 nL of diluted compound is transferred to assay plates (Corning3571) using ECHO550, the final DMSO concentration @0.1%. The cells are seeded in 3000/[…]/well to compound plates. The plates are incubated for 6 hrs in TC incubator. The amount of Nano-Glo® HiBiT lytic reagent needed to perform the desired experiments is calculated. The Nano-Glo® HiBiT lytic reagent is brought to room temperature. The LgBiT protein is diluted to 1:100 and the Nano-Glo® HiBiT lytic substrate is brought to 1:50 into an appropriate volume of room temperature Nano-Glo® HiBiT lytic buffer. […] of the detection reagent (or without LgBiT) is dispensed to corresponding well according to the layout. The plate is shaked for 10 mins at room temperature. After briefly centrifuging, the plate is read on Envision. At the indicated timepoints, the Nano-Glo® HiBiT lytic detection system (Promega™) was utilized for detecting bioluminescence of the HiBiT tag in treated cells: abundance of the tag is proportionate to the level of luminescence. Following normalization to DMSO, dose-response curves were plotted (GraphPad Prism) to determine the concentration points at which 50% of HiBiT-Ikaros degradation was achieved by each compound. The extent of degradation (range of luminescence) from the highest to lowest concentration points was calculated to determine the Dm.

IKZF2 = IKZF2 (Homo sapiens (Human), UniProt Q96SW2+Q9UKS7); test: IKZF2 HiBit Assay (HEK293T Flp-in-HiBiT cells); format: cell-based; details: for DC50: read-out: IKZF2 HiBit degradation DC50; for Dmax: HEK-293T, read-out: IKZF2 HiBit degradation Dmax
Method: The HiBiT protein tagging system was applied to modified HEK293T Flp-in-HiBiT cells (polyclone) via a CRISPR/Cas9—mediated insertion of the HiBiT peptide tag (Promega™) to the N-terminus of the IKZF2 gene locus (Neon™ transfection system). Test and reference compounds are diluted from 1 mM at 3 folds for 11 doses. 25 nL of diluted compound is transferred to assay plates (Corning3570) using ECHO550, the final DMSO concentration @0.1%. The cells are seeded in 3000/[…]/well to compound plates. It is then incubated for 6 hrs in TC incubator. The amount of Nano-Glo® HiBiT lytic reagent needed to perform the desired experiments is calculated. The Nano-Glo® HiBiT lytic reagent is brought to room temperature. The LgBiT protein is diluted to 1:100 and the Nano-Glo® HiBiT lytic substrate is diluted to 1:50 into an appropriate volume of room temperature Nano-Glo® HiBiT lytic buffer. […] of the detection reagent (or without LgBiT) is dispensed to corresponding well according to the layout. The plate is then shaked for 10 mins at room temperature. After briefly centrifuge, the plate is read on Envision. At the indicated timepoints, the Nano-Glo® HiBiT lytic detection system (Promega™) was utilized for detecting bioluminescence of the HiBiT tag in treated cells: abundance of the tag is proportionate to the level of luminescence. Following normalization to DMSO, dose-response curves were plotted (GraphPad Prism) to determine the concentration points at which 50% of HiBiT-Helios degradation was achieved by each compound. The extent of degradation (range of luminescence) from the highest to lowest concentration points was calculated to determine the Dmax.

[1] = biological target: His tagged CRBN+DDB−DLS7+CXU4 (Homo sapiens (Human), UniProt Q96SW2); test: IC50 Measurements for Binding to CRBN/DDBI (HTRF); details: Cy5-labeled Thalidomide probe, one hour incubation
[2] = HEK293T Flp-in-HiBiT-IKZF1 cells, 6 hrs
[3] = HEK293T Flp-in-HiBiT cells, 6 hrs

Sequence of IKZF2 (Q9UKS7 whole entry): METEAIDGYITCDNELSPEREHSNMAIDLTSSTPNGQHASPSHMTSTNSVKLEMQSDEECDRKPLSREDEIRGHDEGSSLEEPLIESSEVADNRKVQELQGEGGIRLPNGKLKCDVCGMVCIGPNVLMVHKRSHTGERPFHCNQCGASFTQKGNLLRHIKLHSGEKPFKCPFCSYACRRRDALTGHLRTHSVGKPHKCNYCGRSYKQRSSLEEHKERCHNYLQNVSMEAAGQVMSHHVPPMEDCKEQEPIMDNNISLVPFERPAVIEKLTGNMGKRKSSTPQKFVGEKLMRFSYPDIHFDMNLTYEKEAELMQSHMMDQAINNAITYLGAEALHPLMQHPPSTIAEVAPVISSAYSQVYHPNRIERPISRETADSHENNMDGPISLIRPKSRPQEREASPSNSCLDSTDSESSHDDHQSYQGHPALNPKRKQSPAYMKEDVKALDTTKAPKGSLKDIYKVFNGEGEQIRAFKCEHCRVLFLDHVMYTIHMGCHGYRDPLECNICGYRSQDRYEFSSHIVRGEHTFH
Sequence of IKZF2 (Q96SW2 whole entry): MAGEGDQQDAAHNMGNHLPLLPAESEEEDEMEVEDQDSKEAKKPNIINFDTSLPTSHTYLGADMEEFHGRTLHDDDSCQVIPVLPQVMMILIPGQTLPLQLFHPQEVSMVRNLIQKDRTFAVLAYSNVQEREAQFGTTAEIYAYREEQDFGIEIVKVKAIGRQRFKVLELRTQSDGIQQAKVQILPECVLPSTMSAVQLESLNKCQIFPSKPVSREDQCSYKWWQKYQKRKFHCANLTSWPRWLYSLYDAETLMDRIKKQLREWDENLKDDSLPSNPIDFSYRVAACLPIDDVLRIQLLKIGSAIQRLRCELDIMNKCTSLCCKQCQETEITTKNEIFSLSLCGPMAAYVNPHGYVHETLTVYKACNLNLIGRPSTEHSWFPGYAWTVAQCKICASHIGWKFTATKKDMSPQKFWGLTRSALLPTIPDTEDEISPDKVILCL
Sequence of IKZF2 (Q16531 whole entry partner): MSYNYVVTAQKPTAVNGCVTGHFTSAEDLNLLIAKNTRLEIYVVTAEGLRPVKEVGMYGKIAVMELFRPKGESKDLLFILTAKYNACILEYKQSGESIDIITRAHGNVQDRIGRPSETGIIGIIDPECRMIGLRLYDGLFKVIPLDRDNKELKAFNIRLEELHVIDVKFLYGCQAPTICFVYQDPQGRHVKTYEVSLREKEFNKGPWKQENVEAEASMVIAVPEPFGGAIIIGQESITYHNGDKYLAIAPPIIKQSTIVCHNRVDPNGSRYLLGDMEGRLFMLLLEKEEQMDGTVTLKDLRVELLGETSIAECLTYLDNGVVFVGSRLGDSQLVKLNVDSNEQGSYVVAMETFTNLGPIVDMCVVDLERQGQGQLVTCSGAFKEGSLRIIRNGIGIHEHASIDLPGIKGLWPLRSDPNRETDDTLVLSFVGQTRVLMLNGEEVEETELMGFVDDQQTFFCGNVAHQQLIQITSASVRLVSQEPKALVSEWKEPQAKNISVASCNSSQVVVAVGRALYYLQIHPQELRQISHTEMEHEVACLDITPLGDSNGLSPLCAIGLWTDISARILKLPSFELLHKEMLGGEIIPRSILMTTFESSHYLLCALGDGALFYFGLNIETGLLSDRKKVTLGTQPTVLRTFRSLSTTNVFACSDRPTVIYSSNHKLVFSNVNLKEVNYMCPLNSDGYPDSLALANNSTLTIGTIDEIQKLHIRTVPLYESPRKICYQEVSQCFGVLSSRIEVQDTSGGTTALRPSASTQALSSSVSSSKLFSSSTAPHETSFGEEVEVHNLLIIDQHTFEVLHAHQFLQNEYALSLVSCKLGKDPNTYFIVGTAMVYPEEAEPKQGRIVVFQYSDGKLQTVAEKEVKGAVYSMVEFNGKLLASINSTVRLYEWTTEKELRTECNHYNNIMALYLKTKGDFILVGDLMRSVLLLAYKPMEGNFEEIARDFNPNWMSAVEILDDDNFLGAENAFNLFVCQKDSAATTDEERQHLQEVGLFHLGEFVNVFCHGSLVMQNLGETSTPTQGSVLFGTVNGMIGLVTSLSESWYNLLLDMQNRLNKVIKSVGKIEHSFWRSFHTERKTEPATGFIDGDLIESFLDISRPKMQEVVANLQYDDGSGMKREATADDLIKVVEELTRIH
Sequence of IKZF1 (Q13422 whole entry): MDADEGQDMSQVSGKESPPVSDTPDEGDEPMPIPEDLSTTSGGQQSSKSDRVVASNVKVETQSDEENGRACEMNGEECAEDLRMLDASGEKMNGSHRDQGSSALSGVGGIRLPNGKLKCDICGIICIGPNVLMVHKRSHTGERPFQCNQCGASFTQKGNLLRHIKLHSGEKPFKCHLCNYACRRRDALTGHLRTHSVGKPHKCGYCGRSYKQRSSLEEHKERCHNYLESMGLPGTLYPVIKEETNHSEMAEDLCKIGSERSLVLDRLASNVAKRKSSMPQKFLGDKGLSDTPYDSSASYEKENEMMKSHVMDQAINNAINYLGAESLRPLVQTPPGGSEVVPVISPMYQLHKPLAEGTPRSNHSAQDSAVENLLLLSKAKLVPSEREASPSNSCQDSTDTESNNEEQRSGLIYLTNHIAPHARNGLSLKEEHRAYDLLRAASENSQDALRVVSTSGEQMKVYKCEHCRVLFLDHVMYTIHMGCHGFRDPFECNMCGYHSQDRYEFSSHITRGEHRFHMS
Sequence of IKZF1 (Q96SW2 whole entry): as the sequence (Q96SW2 whole entry) above
Sequence of IKZF1 (Q16531 whole entry partner): as the sequence (Q16531 whole entry partner) above
Sequence of His tagged CRBN+DDB−DLS7+CXU4 (Q96SW2 whole entry): as the sequence (Q96SW2 whole entry) above
Sequence of His tagged CRBN+DDB−DLS7+CXU4 (Q16531 whole entry partner): as the sequence (Q16531 whole entry partner) above

Structure (SMILES) | DC50 (IKZF1; [2]) | Dmax (IKZF1) | DC50 (IKZF2; [3]) | Dmax (IKZF2) | IC50 [1] | Dmax (IKZF1; [2]) | Dmax (IKZF2; [3])
[2H]C([2H])(c1ccc2cnn(C)c2c1)N1CCC2(CC1)COc1c2ccc2c1CN([C@H]1CCC(=O)NC1=O)C2=O [Compound B8, (S)-3-(1′-((1-methyl-1H-indazol-6-yl)methyl-d2)-6-oxo-6,8-dihydro-2H,7H-spiro[furo[2,3-e]isoindole-3,4′-piperidin]-7-yl)piperidine-2,6-dione] | > 1000 nM | < 20% | 1 to 10 nM | 60 to 80% | 100 to 500 nM | – | –
[2H]C([2H])(c1cccc(-c2cnn(C([2H])([2H])[2H])c2)c1)N1CCC2(CC1)COc1c2ccc2c1CN([C@H]1CCC(=O)NC1=O)C2=O [Compound B9, (S)-3-(1′-((3-(1-(methyl-d3)-1H-pyrazol-4-yl)phenyl)methyl-d2)-6-oxo-6,8-dihydro-2H,7H-spiro[furo[2,3-e]isoindole-3,4′-piperidin]-7-yl)piperidine-2,6-dione] | > 1000 nM | – | 1 to 10 nM | – | < 100 nM | < 20% | 60 to 80%
[2H]C([2H])(c1cccc(-c2cnn(C(F)F)c2)c1)N1CCC2(CC1)COc1c2ccc2c1CN([C@H]1CCC(=O)NC1=O)C2=O [Compound B10, (S)-3-(1′-((3-(1-(difluoromethyl)-1H-pyrazol-4-yl)phenyl)methyl-d2)-6-oxo-6,8-dihydro-2H,7H-spiro[furo[2,3-e]isoindole-3,4′-piperidin]-7-yl) piperidine-2,6-dione] | > 1000 nM | – | 1 to 10 nM | – | 100 to 500 nM | < 20% | 60 to 80%
[2H]C([2H])(c1cccc(-c2cnn(C)c2)c1)N1CCC2(CC1)COc1c2ccc2c1CN([C@H]1CCC(=O)NC1=O)C2=O [Compound B11, (S)-3-(1′-((3-(1-methyl-1H-pyrazol-4-yl)phenyl)methyl-d2)-6-oxo-6,8-dihydro-2H,7H-spiro[furo[2,3-e]isoindole-3,4′-piperidin]-7-yl)piperidine-2,6-dione] | > 1000 nM | – | 1 to 10 nM | – | < 100 nM | < 20% | > 80%
[2H]C([2H])([2H])n1cc(-c2cccc(CN3CCC4(CC3)COc3c4ccc4c3CN([C@H]3CCC(=O)NC3=O)C4=O)c2)cn1 [Compound B12, (S)-3-(1′-(3-(1-(methyl-d3)-1H-pyrazol-4-yl)benzyl)-6-oxo-6,8-dihydro-2H,7H-spiro[furo[2,3-e]isoindole-3,4′-piperidin]-7-yl)piperidine-2,6-dione] | > 1000 nM | – | 1 to 10 nM | – | 100 to 500 nM | < 20% | > 80%
[2H]C1([2H])Oc2c(ccc3c2CN(C2CCC(=O)NC2=O)C3=O)C12CCN(Cc1cccc(-c3cnn(C)c3)c1)CC2 (stereo not drawn) [Compound B13, 3-(1′-(3-(1-methyl-1H-pyrazol-4-yl)benzyl)-6-oxo-6,8-dihydro-2H,7H spiro[furo[2,3-e]isoindole-3,4′-piperidin]-7-yl-2,2-d2)piperidine-2,6-dione] | > 1000 nM | – | 1 to 10 nM | – | 100 to 500 nM | < 20% | 60 to 80%
Cn1cc(-c2cccc(CN3CCC4(CC3)COc3c4cc(F)c4c3CN([C@H]3CCC(=O)NC3=O)C4=O)c2)cn1 [Compound B16, (S)-3-(5-fluoro-1′-(3-(1-methyl-1H-pyrazol-4-yl)benzyl)-6-oxo-6,8-dihydro-2H,7H-spiro[furo[2,3-e]isoindole-3,4′-piperidin]-7-yl)piperidine-2,6-dione] | > 1000 nM | – | 1 to 10 nM | – | 100 to 500 nM | < 20% | 40 to 60%
O=C1CC[C@H](N2Cc3c4c(cc(Cl)c3C2=O)C2(CCN(Cc3ccccc3)CC2)CO4)C(=O)N1 [Compound B17, (S)-3-(1′-benzyl-5-chloro-6-oxo-6,8-dihydro-2H,7H-spiro[furo[2,3-e]isoindole-3,4′-piperidin]-7-yl)piperidine-2,6-dione] | > 1000 nM | – | > 1000 nM | – | 500 to 1000 nM | < 20% | < 20%
O=C1CC[C@H](N2Cc3c4c(cc(Cl)c3C2=O)C2(CCN(Cc3cccc5cn[nH]c35)CC2)CO4)C(=O)N1 [Compound B18, (S)-3-(1′-((1H-indazol-7-yl)methyl)-5-chloro-6-oxo-6,8-dihydro-2H,7H-spiro[furo[2,3-e]isoindole-3,4′-piperidin]-7-yl)piperidine-2,6-dione] | > 1000 nM | – | > 1000 nM | – | 100 to 500 nM | < 20% | < 20%
Cn1cc(-c2cccc(CN3CCC4(CC3)COc3c4cc(C#N)c4c3CN([C@H]3CCC(=O)NC3=O)C4=O)c2)cn1 [Compound B19, (S)-7-(2,6-dioxopiperidin-3-yl)-1′-(3-(1-methyl-1H-pyrazol-4-yl)benzyl)-6-oxo-7,8-dihydro-2H,6H-spiro[furo[2,3-e]isoindole-3,4′-piperidine]-5-carbonitrile] | > 1000 nM | – | 100 to 1000 nM | – | 1000 to 5000 nM | < 20% | 40 to 60%
Cc1cc2c(c3c1C(=O)N([C@H]1CCC(=O)NC1=O)C3)OCC21CCN(Cc2cccc(-c3cnn(C)c3)c2)CC1 [Compound B20, (S)-3-(5-methyl-1′-(3-(1-methyl-1H-pyrazol-4-yl)benzyl)-6-oxo-6,8-dihydro-2H,7H-spiro[furo[2,3-e]isoindole-3,4′-piperidin]-7-yl)piperidine-2,6-dione] | > 1000 nM | – | > 1000 nM | – | 500 to 1000 nM | < 20% | 20 to 40%
CC1CN(Cc2cccc(-c3cnn(C)c3)c2)CCC12COc1c2ccc2c1CN(C1CCC(=O)NC1=O)C2=O (stereo not drawn) [Compound B21, 3-(3′-methyl-1′-(3-(1-methyl-1H-pyrazol-4-yl)benzyl)-6-oxo-6,8-dihydro-2H,7H-spiro[furo[2,3-e]isoindole-3,4′-piperidin]-7-yl)piperidine-2,6-dione] | > 1000 nM | – | 1 to 10 nM | – | 100 to 500 nM | < 20% | 20 to 40%
O=C1CCC(N2Cc3c(ccc4c3OCC43CCN(Cc4ccccc4)CC3O)C2=O)C(=O)N1 (stereo not drawn) [Compound B22, 3-(1′-benzyl-3′-hydroxy-6-oxo-6,8-dihydro-2H,7H-spiro[furo[2,3-e]isoindole-3,4′-piperidin]-7-yl)piperidine-2,6-dione] | > 1000 nM | – | 10 to 100 nM | – | 100 to 500 nM | < 20% | 20 to 40%
O=C1CCC(N2Cc3c(ccc4c3OCC43CCN(Cc4ccccc4)CC3F)C2=O)C(=O)N1 (stereo not drawn) [Compound B23, 3-(1′-benzyl-3′-fluoro-6-oxo-6,8-dihydro-2H,7H-spiro[furo[2,3-e]isoindole-3,4′-piperidin]-7-yl)piperidine-2,6-dione] | > 1000 nM | – | > 1000 nM | – | 500 to 1000 nM | < 20% | < 20%
O=C1CC[C@H](N2Cc3c(ccc4c3OCC43CCN(Cc4ccc5c(c4)CC(=O)N5)CC3(F)F)C2=O)C(=O)N1 (stereo partly drawn) [Compound B28, (3S)-3-(3′,3′-difluoro-6-oxo-1′-((2-oxoindolin-5-yl)methyl)-6,8-dihydro-2H,7H-spiro[furo[2,3-e]isoindole-3,4′-piperidin]-7-yl)piperidine-2,6-dione] | > 1000 nM | – | 1 to 10 nM | – | 100 to 500 nM | < 20% | 60 to 80%
